Tests used:
Assay type in all cases: cell-based
A. baumannii ATCC 19606 = assay: Checkerboard assay (MIC, FICI); conditions: 19606
Description: (§1) The FICI of β,β-Dim–colistin combination was determined by a checkerboard assay. Briefly, two-fold serial dilutions of β,β-Dim and colistin were prepared in a 96-well plate. After incubation at 37 °C for 18 h with bacterial suspension (10^6 CFU/mL), OD600 values were measured. FICI = (MICβ,β-Dim in combination/MICβ,β-Dim) + (MICcolistin in combination/MICcolistin). The synergistic effect of β,β-Dim with other antibiotics was measured in the same way. Synergy was considered to be an FICI ≤ 0.5.

E. coli 13f4(mcr-1) = assay: Checkerboard assay (MIC, FICI); conditions: 13f4
Description: as §1

E. coli ATCC 25922 = assay: Checkerboard assay (MIC, FICI); conditions: 25922
Description: as §1

[1] = system: E. coli BW25113-184-mcr-1; assay: Checkerboard assay (MIC, FICI); conditions: BW25113-184-mcr-1
Description: as §1

E. coli BW25113-184 = assay: Checkerboard assay (MIC, FICI); conditions: BW25113-184
Description: as §1

[2] = system: E. coli BW25113-pmrAD82N(pmrA); assay: Checkerboard assay (MIC, FICI); conditions: BW25113-pmrAD82N
Description: as §1

[3] = system: E. coli BW25113-pmrBR93P(pmrB); assay: Checkerboard assay (MIC, FICI); conditions: BW25113-pmrBR93P
Description: as §1

E. coli ZJ71(mcr-1) = assay: Checkerboard assay (MIC, FICI); conditions: ZJ71
Description: as §1

E. coli pHSG299-mcr-3 = assay: Checkerboard assay (MIC, FICI); conditions: pHSG299-mcr-3
Description: as §1

K. pneumoniae 109(mcr-8) = assay: Checkerboard assay (MIC, FICI); conditions: 109
Description: as §1

K. pneumoniae 126(mcr-8) = assay: Checkerboard assay (MIC, FICI); conditions: 126
Description: as §1

[4] = system: K. pneumoniae 197(mcr-1、blaNDM); assay: Checkerboard assay (MIC, FICI); conditions: 197
Description: as §1

K. pneumoniae 20(mcr-1) = assay: Checkerboard assay (MIC, FICI); conditions: 20(mcr-1)
Description: as §1

[5] = system: K. pneumoniae 251(mgrB、phoP、pmrA、blaKPC); assay: Checkerboard assay (MIC, FICI); conditions: 251
Description: as §1

[6] = system: K. pneumoniae 29(mcr-8、pmrB、blaNDM); assay: Checkerboard assay (MIC, FICI); conditions: 29
Description: as §1

[7] = system: K. pneumoniae 492(mcr-1、blaNDM); assay: Checkerboard assay (MIC, FICI); conditions: 492
Description: as §1

[8] = system: K. pneumoniae 57(mcr-9、blaNDM); assay: Checkerboard assay (MIC, FICI); conditions: 57
Description: as §1

[9] = system: K. pneumoniae 650(mgrB、phoP、pmrA、blaKPC); assay: Checkerboard assay (MIC, FICI); conditions: 650
Description: as §1

[10] = system: K. pneumoniae 667(phoP、pmrA、blaKPC); assay: Checkerboard assay (MIC, FICI); conditions: 667
Description: as §1

K. pneumoniae ATCC 13883 = assay: Checkerboard assay (MIC, FICI); conditions: 13883
Description: as §1

P. aeruginosa 9(mcr-1) = assay: Checkerboard assay (MIC, FICI); conditions: P. aeruginosa 9
Description: as §1

P. aeruginosa PAO1 = assay: Checkerboard assay (MIC, FICI); conditions: PAO1
Description: as §1

[11] = system: S. Typhimurium 9891(mcr-1); assay: Checkerboard assay (MIC, FICI); conditions: 9891
Description: as §1

[12] = system: S. Typhimurium ATCC 14028; assay: Checkerboard assay (MIC, FICI); conditions: 14028
Description: as §1

[13] = system: K. pneumoniae, E. coli, Salmonella, P. aeruginosa, and A. baumannii; assay: Checkerboard assay, panel of tested strains (summary statements); conditions: with β,β-Dim; summary over tested strains
Description: as §1

K. pneumoniae 667 = assay: Bacterial growth curves; conditions: β,β-Dim 4 µg/mL, colistin 0.5 µg/mL, alone or combined; 24 h
Description: Overnight cultures of K. pneumoniae 667 and E. coli 13f4 were diluted to 10^6 CFU/mL; then, β,β-Dim (4 μg/mL), colistin (0.5 or 2 μg/mL), and their combination were co-incubated with bacterial suspensions in a 96-well plate. OD600 values were monitored hourly over a 24 h period.

## colistin
A. baumannii ATCC 19606; alone
  MIC of colistin: 0.5 µg/mL
A. baumannii ATCC 19606; fold drop of colistin MIC
  Potentation: 64
A. baumannii ATCC 19606; with β,β-Dim
  MIC of colistin [combination]: 0.0078 µg/mL
E. coli 13f4(mcr-1); alone
  MIC of colistin: 4 µg/mL
E. coli 13f4(mcr-1); fold drop of colistin MIC
  Potentation: 4
E. coli 13f4(mcr-1); with β,β-Dim
  MIC of colistin [combination]: 1 µg/mL
E. coli ATCC 25922; alone
  MIC of colistin: 0.125 µg/mL
E. coli ATCC 25922; fold drop of colistin MIC
  Potentation: 4
E. coli ATCC 25922; with β,β-Dim
  MIC of colistin [combination]: 0.0313 µg/mL
[1]; alone
  MIC of colistin: 4 µg/mL
[1]; fold drop of colistin MIC
  Potentation: 4
[1]; with β,β-Dim
  MIC of colistin [combination]: 1 µg/mL
E. coli BW25113-184; alone
  MIC of colistin: 0.125 µg/mL
E. coli BW25113-184; fold drop of colistin MIC
  Potentation: 4
E. coli BW25113-184; with β,β-Dim
  MIC of colistin [combination]: 0.0313 µg/mL
[2]; alone
  MIC of colistin: 16 µg/mL
[2]; fold drop of colistin MIC
  Potentation: 32
[2]; with β,β-Dim
  MIC of colistin [combination]: 0.5 µg/mL
[3]; alone
  MIC of colistin: 8 µg/mL
[3]; fold drop of colistin MIC
  Potentation: 32
[3]; with β,β-Dim
  MIC of colistin [combination]: 0.25 µg/mL
E. coli ZJ71(mcr-1); alone
  MIC of colistin: 4 µg/mL
E. coli ZJ71(mcr-1); fold drop of colistin MIC
  Potentation: 8
E. coli ZJ71(mcr-1); with β,β-Dim
  MIC of colistin [combination]: 0.5 µg/mL
E. coli pHSG299-mcr-3; alone
  MIC of colistin: 2 µg/mL
E. coli pHSG299-mcr-3; fold drop of colistin MIC
  Potentation: 16
K. pneumoniae 109(mcr-8); alone
  MIC of colistin: 16 µg/mL
K. pneumoniae 109(mcr-8); fold drop of colistin MIC
  Potentation: 64
K. pneumoniae 109(mcr-8); with β,β-Dim
  MIC of colistin [combination]: 0.25 µg/mL
K. pneumoniae 126(mcr-8); alone
  MIC of colistin: > 512 µg/mL
K. pneumoniae 126(mcr-8); fold drop of colistin MIC
  Potentation: 1024
K. pneumoniae 126(mcr-8); with β,β-Dim
  MIC of colistin [combination]: 0.5 µg/mL
[4]; alone
  MIC of colistin: 4 µg/mL
[4]; fold drop of colistin MIC
  Potentation: 8
[4]; with β,β-Dim
  MIC of colistin [combination]: 0.5 µg/mL
K. pneumoniae 20(mcr-1); alone
  MIC of colistin: 64 µg/mL
K. pneumoniae 20(mcr-1); fold drop of colistin MIC
  Potentation: 64
K. pneumoniae 20(mcr-1); with β,β-Dim
  MIC of colistin [combination]: 1 µg/mL
[5]; alone
  MIC of colistin: 512 µg/mL
[5]; fold drop of colistin MIC
  Potentation: 1024
[5]; with β,β-Dim
  MIC of colistin [combination]: 0.5 µg/mL
[6]; alone
  MIC of colistin: 64 µg/mL
[6]; fold drop of colistin MIC
  Potentation: 256
[6]; with β,β-Dim
  MIC of colistin [combination]: 0.25 µg/mL
[7]; alone
  MIC of colistin: 4 µg/mL
[7]; fold drop of colistin MIC
  Potentation: 32
[7]; with β,β-Dim
  MIC of colistin [combination]: 0.125 µg/mL
[8]; alone
  MIC of colistin: 2 µg/mL
[8]; fold drop of colistin MIC
  Potentation: 32
[8]; with β,β-Dim
  MIC of colistin [combination]: 0.0625 µg/mL
[9]; alone
  MIC of colistin: 32 µg/mL
[9]; fold drop of colistin MIC
  Potentation: 16
[9]; with β,β-Dim
  MIC of colistin [combination]: 2 µg/mL
[10]; alone
  MIC of colistin: 64 µg/mL
[10]; fold drop of colistin MIC
  Potentation: 128
[10]; with β,β-Dim
  MIC of colistin [combination]: 0.5 µg/mL
K. pneumoniae ATCC 13883; alone
  MIC of colistin: 0.5 µg/mL
K. pneumoniae ATCC 13883; fold drop of colistin MIC
  Potentation: 4
K. pneumoniae ATCC 13883; with β,β-Dim
  MIC of colistin [combination]: 0.125 µg/mL
P. aeruginosa 9(mcr-1); alone
  MIC of colistin: 4 µg/mL
P. aeruginosa 9(mcr-1); fold drop of colistin MIC
  Potentation: 8
P. aeruginosa 9(mcr-1); with β,β-Dim
  MIC of colistin [combination]: 0.5 µg/mL
P. aeruginosa PAO1; alone
  MIC of colistin: 1 µg/mL
P. aeruginosa PAO1; fold drop of colistin MIC
  Potentation: 2
P. aeruginosa PAO1; with β,β-Dim
  MIC of colistin [combination]: 0.5 µg/mL
[11]; alone
  MIC of colistin: 16 µg/mL
[11]; fold drop of colistin MIC
  Potentation: 8
[11]; with β,β-Dim
  MIC of colistin [combination]: 2 µg/mL
[12]; alone
  MIC of colistin: 1 µg/mL
[12]; fold drop of colistin MIC
  Potentation: 2
[12]; with β,β-Dim
  MIC of colistin [combination]: 0.5 µg/mL
[13]
  colistin MIC in combination: ≤ 2 µg/mL
  reduction of colistin MIC: 4–1024 fold
K. pneumoniae 667
  bacterial growth (growth curves): neither β,β-Dim (4 µg/mL) nor colistin (0.5 µg/mL) alone inhibited the growth

From PMC12837263, “β,β-Dimethylacrylalkannin Restores Colistin Efficacy Against mcr- and TCS-Mediated Resistant Gram-Negative Bacteria via Membrane Disturbance” (Antibiotics, 2025)
